US5968526A, “T cell epitopes of the major allergens from Dermatophagoides (house dust mite)” (Immulogic Pharamaceutical Corporation, priority 1995, dated 1999)

Assays:
[1] = test system: T cell cultures reactive with Der p I from house dust mite-allergic subjects; assay: secondary T cell proliferation assay, Group I (Der p I) overlapping and candidate/unique peptides; percent of T cell reactivity; type: cell-based, human; details: patient 1733; for T cell stimulation index (S.I.): highest S.I. ≥2.0 recorded
Excerpt: To determine whether a peptide (candidate peptide) or a combination of candidate peptides are likely to comprise a sufficient percentage of the T cell reactivity of house dust mite protein allergens, to induce T cell nonresponsiveness in a substantial percentage of a population of individuals sensitive to house dust mite allergen, an algorithm can be used. In accordance with one such algorithm, a set of overlapping peptides is produced by systematically dividing the protein allergen(s) of interest into al least two overlapping peptide regions of desired lengths (e.g., of about 12-30 amino acid residues in length, preferably not longer than about 25 amino acid residues in length with about 5-15 amino acid residues of overlap). This division into peptide regions can be arbitrary, can be made according to an algorithm, or can be wholly or partially based on regions of house dust mite Group I and/or Group II protein allergens known to comprise at least one T cell epitope. Preferably, at least 50% of the entire house dust mite protein allergen sequence and more preferably, the entire house dust mite protein allergen sequence is divided into two or more peptides. A human T cell stimulation index is determined for each of the peptides in an in vitro T cell proliferation assay as described herein for each individual tested in a population of individuals sensitive to the protein antigen. For example both WO93/08279 and WO94/24281 disclose T cell studies with overlapping peptides derived from Der p I, Der p II, Der f I and Der f II. A candidate peptide or combination of candidate peptides is selected based, at least in part, on the mean human T cell stimulation index of the candidate peptide in the set of peptides tested and the positivity index of the candidate peptide in the set of peptides tested (see, FIGS. 3 and 4). The human T cell stimulation index for the candidate peptide(s) is summed. For each individual, the human T cell stimulation index for the candidate peptide(s) is divided by the sum of the human T cells stimulation indices of the remaining peptides in the set of peptides tested to determine a percent of T cell reactivity as shown below:
Alternatively, the presence of T cell epitopes in the candidate peptide dependent on amino acids residues in an overlapping peptide located at either the N-terminus or C-terminus of the candidate peptide in the amino acid sequence of the protein antigen, but which epitopes are not present in the candidate peptide can be considered in calculating the percent of T cell reactivity in the candidate peptide by use of the following formula: [formula]
In this formula, "NT flanking peptide" refers to a peptide which comprises amino acid residues which overlap with amino acid residues located at the N-terminus of the candidate peptide in the amino acid sequence of the protein antigen from which the peptide is derived; "CT flanking peptide" refers to a peptide which comprises amino acid residues which overlap with amino acid residues located a the C-terminus of the candidate peptide in the amino acid sequence of the protein antigen from which the peptide is derived. In this calculation stimulation indices for the candidate peptide, the N-terminal flanking peptide and the C-terminal flanking peptide are added and divided by the sum total of the stimulation indices for the entire set of overlapping peptides obtain a percent of T cell reactivity for the candidate peptide. If a combination of two or more candidate peptides is selected each of which contains amino acid residues which overlap, this calculation cannot be used to determine a percent of T cell reactivity for each candidate peptide separately. However, a total percent of T cell reactivity for the combination of candidate peptides can be obtained. In this situation, the stimulation indices for all of the candidate peptides which overlap is included in the calculation. […]

[2] = test system: T cell lines primed in vitro to Der f I; assay: secondary proliferation of Der f I-primed T cell lines (Examples VI, VII, XI); type: cell-based, human; details: for T cell response to Der p I peptides: Der f I primed, 8 positive experiments, FIG. 8
In short: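 PBMC from house dust mite-allergic patients were primed in vitro with recombinant or affinity-purified Der f I at 20 μg/ml (or 10 μg/ml), then rechallenged with Der f I peptides. Antigen-presenting cells were x-irradiated autologous PBMC (3500 Rads) or EBV-transformed B cells (25,000 Rads). Read-out was T cell proliferation.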

Substance	T cell stimulation index (S.I.) [1]	T cell response to Der p I peptides [2]	other results
DP I-23.31: modified Der p I peptide; unique peptide (DEEGVVQESYYRYVAREQSCRRPNAE)	5.7		
DF I-22.2: VAATESAYLAYRNTSLDLSEQELVD, amino acid residues 40-64 of Der f I			stimulation index, rank in group ([2]; 9 patients, FIG. 16a / 16b): highest stimulation index
DP I-21.2: Der p I peptide; unique peptide (SINGNAPAEIDLRQMRTVTPIRMQ)	3.6		
DP I-3: Der p I peptide (TVTPIRMQGGCGSCWAFSGVAATESAYLA)	3.9	respond significantly	
DP I-1: Der p I peptide, amino acid residues 1-20 (TNACSINGNAPAEIDLRQMR)		respond significantly	
DP I-26.6: modified Der p I peptide; unique peptide (DEGIKDLDAFRHYDGRTIIQRDNGYE)	5.0		estimated range of T cell reactivity (% reactivity of peptide) ([1]; of total reactivity of the Der p I protein): 12.3%-24
